Measurements reported in PubChem BioAssay AID1996.
≈ marks a conversion by molar mass, not a printed value.

Conditions: buffer; pH 7.4; 200.0 µM

CC(=O)c1cccc(NC(=O)NC(C)c2ccc3c(c2)OCO3)c1 (stereo not given) and CC(=O)c1cccc(NC(=O)CNC(=O)Cc2cccc3ccccc23)c1 are within 1.5-fold of each other in solubility kinetic: 6.9 µg/mL (≈ 21.1 µM) for the first, 8.4 µg/mL (≈ 23.3 µM) for the second.

Going from CNC(=O)O/N=C(\N)Cc1csc2ccc(Cl)cc12 to CC(C)(C)NC(=O)c1ccc(COc2ccc(Cl)cc2Cl)o1, the solubility kinetic falls from 44.1 µg/mL (≈ 148 µM) to 5 µg/mL (≈ 14.6 µM) (8.8-fold).

Compared with CC(C)(C)c1ccc(/C=C(\C#N)C(=O)Nc2ccccn2)cc1, CC(C)(C)c1csc(NC(=O)c2cccnc2)n1 is 17-fold higher in solubility kinetic: 0.6 µg/mL (≈ 1.96 µM) for the first, 10 µg/mL (≈ 38.3 µM) for the second.

COCCN1CCn2c(nc3cc(NC(C)=O)ccc32)C1 and COCCNC(=S)N1CCN(Cc2cccc(OC)c2)CC1 are within 1.5-fold of each other in solubility kinetic: 36.4 µg/mL (≈ 126 µM) for the first, 42.5 µg/mL (≈ 131 µM) for the second.

First: COc1cccc(SCC2CSc3nc4ccccc4c(=O)n32)c1 (stereo not given)
Second: Cc1cccc(/C=C/c2nc3ccccc3c(=O)[nH]2)c1
The solubility kinetic of the first is higher: greater than 53.5 µg/mL for the first, 0.6 µg/mL (≈ 2.29 µM) for the second.

CCCCc1c(O)nc(SCC(=O)N2CCCCCC2)[nH]c1=O and O=C(CN1C(=O)COc2ccccc21)N1CCCC1 cannot be ordered by solubility kinetic: 48.9 µg/mL (≈ 144 µM) for the first, greater than 39 µg/mL for the second.

Compared with Cn1c(=O)n(Cc2ccccc2Br)c2ccccc21, O=C(O)CSc1nc2ccccc2n1Cc1ccccc1 is higher in solubility kinetic: 7.8 µg/mL (≈ 24.6 µM) for the first, greater than 44.8 µg/mL for the second.

C=CCN(CC(=O)NC1CC1)S(=O)(=O)c1cccc(C(F)(F)F)c1 and O=C(COC(=O)c1ccccc1F)NC1CC1 cannot be ordered by solubility kinetic: greater than 54.4 µg/mL for the first, greater than 35.6 µg/mL for the second.

CCn1ccnc1CN1CCN(CCC(C)C)C(CCO)C1 (stereo not given) and CC(C)C1N(C(=O)N(C)C)CCN1S(=O)(=O)c1ccccc1 (stereo not given) cannot be ordered by solubility kinetic: greater than 46.3 µg/mL for the first, greater than 48.8 µg/mL for the second.

Cc1ccccc1NC(=O)CCN1CCN(C)CC1 and O=C(COc1ccccc1)N1CCN(c2ncccn2)CC1 cannot be ordered by solubility kinetic: greater than 39.2 µg/mL for the first, greater than 44.8 µg/mL for the second.

Compared with Cc1ccc(Cl)c(OCC(=O)N2CCc3ccccc3C2)c1, CC(=O)c1cccc(OCC(=O)N2CCCc3ccccc32)c1 is 7.2-fold higher in solubility kinetic: 6.2 µg/mL (≈ 19.6 µM) for the first, 44.6 µg/mL (≈ 144 µM) for the second.

Compared with O=C(O)c1ccc(S(=O)(=O)NCc2cccnc2)cc1, O=C(Nc1nc(-c2cccnc2)cs1)c1ccc([N+](=O)[O-])cc1 is lower in solubility kinetic: greater than 43.8 µg/mL for the first, 3.2 µg/mL (≈ 9.81 µM) for the second.

Cc1cc(C)c(C#N)c(Nc2cccc(Br)c2)n1 and CCc1nc(Nc2cccc(F)c2)c2oc3ccccc3c2n1.Cl cannot be ordered by solubility kinetic: less than 0.2 µg/mL for the first, less than 0.2 µg/mL for the second.

First: Fc1ccc(NC(=S)Nc2ccc3nccnc3c2)cc1
Second: Cc1ccc(C)c(NC(=O)CSc2cccc3cccnc23)c1
The solubility kinetic of the first is 19-fold higher: 41.9 µg/mL (≈ 140 µM) for the first, 2.2 µg/mL (≈ 6.82 µM) for the second.

Compared with N/C(=N/O)c1nc(N2CCCC2)nc(N2CCCC2)n1, CN(C)c1ccc(/C=C2\SC(N3CCCCC3)=NC2=O)cc1 is lower in solubility kinetic: greater than 41.6 µg/mL for the first, 4.7 µg/mL (≈ 14.9 µM) for the second.

Cc1cc(F)ccc1NC(=O)C1CSC2(C)CCC(=O)N12 (stereo not given) and COc1ccc(NC(=O)CN2C(=O)C(=O)N(C3CCCC3)C2=O)c(OC)c1 cannot be ordered by solubility kinetic: greater than 46.3 µg/mL for the first, greater than 56.3 µg/mL for the second.

Going from COCCCNC(=O)c1ccc(CN2CCc3ccccc3C2)cc1 to CC(CC(=O)NCc1ccc(Cl)cc1)c1ccccc1 (stereo not given), the solubility kinetic falls from greater than 50.8 µg/mL to 39 µg/mL (≈ 136 µM).

First: Cc1ccc(N2C(=O)CC(Sc3cccs3)C2=O)cc1 (stereo not given)
Second: COc1cccc(N2C(=O)CC(Sc3nc(C)cc(C)n3)C2=O)c1 (stereo not given)
The solubility kinetic of the first is lower: 35 µg/mL (≈ 115 µM) for the first, greater than 51.5 µg/mL for the second.

First: CCC(=O)c1ccc(OC(=O)N2CCOCC2)cc1
Second: CCCCOc1ccc(C(=O)OCC(=O)N2CCOCC2)cc1
The solubility kinetic of the first is higher: greater than 39.5 µg/mL for the first, 29.9 µg/mL (≈ 93 µM) for the second.

Going from Cc1ccc(NC(=O)CN2c3cccc4cccc(c34)S2(=O)=O)cc1 to Cc1ccc(C(=O)C[n+]2cccc3cc(C)ccc32)cc1.[Br-], the solubility kinetic rises from 3.8 µg/mL (≈ 10.8 µM) to 43.8 µg/mL (12-fold).

Going from COC(OC)C1Nc2ccccc2C(=O)N1c1ccc(F)cc1 (stereo not given) to O=C(O)CC(c1ccccc1)N1C(=O)c2ccccc2C1=O (stereo not given), the solubility kinetic falls from greater than 47.4 µg/mL to 43.9 µg/mL (≈ 149 µM).

First: COC(=O)c1ccc(C(=O)NC2CCSc3ccccc32)cc1 (stereo not given)
Second: COc1cc(C(C)=O)ccc1OC(=O)N(C)c1ccccc1
The solubility kinetic of the first is 11-fold lower: 4 µg/mL (≈ 12.2 µM) for the first, 44.2 µg/mL (≈ 148 µM) for the second.

Compared with CCCCNc1c(N)n(CC(C)C)c(=O)[nH]c1=O, CCn1c(=O)c(C(=O)CC#N)c(N)n(Cc2ccccc2)c1=O is 8.8-fold lower in solubility kinetic: 35.9 µg/mL (≈ 141 µM) for the first, 4.1 µg/mL (≈ 13.1 µM) for the second.

O=c1[nH]cnc2c1c(-c1ccccc1)cn2-c1ccccc1 and O=C(O)c1ccccc1OCc1nc2ccccc2s1 cannot be ordered by solubility kinetic: less than 0.2 µg/mL for the first, less than 0.6 µg/mL for the second.

Going from Cc1nc([N+](=O)[O-])c(C(=O)OCc2ccccc2F)n1C to Cc1ncc([N+](=O)[O-])n1CC(=O)Nc1ccc(F)c(F)c1, the solubility kinetic falls from 41.8 µg/mL (≈ 143 µM) to 6.4 µg/mL (≈ 21.6 µM) (6.5-fold).

CN(CC(=O)NCCCN1CCOCC1)S(=O)(=O)c1ccc(Cl)cc1 and CS(=O)(=O)N1CCC(C(=O)NCc2ccc3c(c2)OCO3)CC1 cannot be ordered by solubility kinetic: greater than 58.5 µg/mL for the first, greater than 51.1 µg/mL for the second.

Compared with CSc1ncccc1C(=O)Nc1ccc2c(c1)OCCO2, Cc1cc(-c2ccccc2C(=O)NC2CCCCC2)on1 is 2-fold higher in solubility kinetic: 15.7 µg/mL (≈ 51.9 µM) for the first, 31.8 µg/mL (≈ 112 µM) for the second.

Going from O=C(COC(=O)Cc1ccsc1)Nc1ccccc1Cl to O=C(COC(=O)CCSc1ccccc1)Nc1ccccc1Br, the solubility kinetic falls from greater than 46.5 µg/mL to 18.2 µg/mL (≈ 46.2 µM).

Compared with COC(=O)Nc1c(-c2ccccc2)nc2ccc(Cl)cn12, CC(=Nc1ccccc1O)c1sc2ccccc2c1O is lower in solubility kinetic: 2.2 µg/mL (≈ 7.29 µM) for the first, less than 0.6 µg/mL for the second.

O=C(CSc1cccc[n+]1[O-])N1CCc2ccccc21 and O=C(O)C1CCCN1C(=O)OCC1c2ccccc2-c2ccccc21 (stereo not given) cannot be ordered by solubility kinetic: greater than 43 µg/mL for the first, greater than 50.6 µg/mL for the second.

Compared with COC(=O)Cn1cc(/C=C/[N+](=O)[O-])c2ccccc21, Cc1ccc(C)c2c1c1ccccc1n2C is 28-fold lower in solubility kinetic: 30.6 µg/mL (≈ 118 µM) for the first, 1.1 µg/mL (≈ 5.26 µM) for the second.

Going from Cn1c(=O)n(C)c2cc(S(=O)(=O)N3CCCCC3)ccc21 to O=S(=O)(c1ccc(=S)[nH]c1)N1CCCCCC1, the solubility kinetic falls from greater than 46.4 µg/mL to 32 µg/mL (≈ 117 µM).

Going from COc1ccc(S(=O)(=O)N2CCCCCC2)cc1C(=O)OCC(=O)NC1CCS(=O)(=O)C1 (stereo not given) to COc1ccccc1NC(=O)c1cc2c(cc1Cl)N1CCCCCC1=NS2(=O)=O, the solubility kinetic falls from greater than 73.3 µg/mL to 2.1 µg/mL (≈ 4.84 µM).

First: CCOc1ccc(NC(=O)CSc2nc(=O)n(Cc3cccnc3)c3c2CCC3)cc1
Second: O=C(CSc1nc2sc3c(c2c(=O)[nH]1)CCC3)NCCO
The solubility kinetic of the first is lower: 4.8 µg/mL (≈ 11 µM) for the first, greater than 48.8 µg/mL for the second.

Compared with COc1cc(CN2CCCN(C)CC2)c([N+](=O)[O-])cc1OC, COc1cc(C(=O)N2CCN(C3CCCCC3)CC2)cc(OC)c1OC.O=C(O)C(=O)O is higher in solubility kinetic: 39 µg/mL (≈ 126 µM) for the first, greater than 67.9 µg/mL for the second.

First: CCOc1ccc2[nH]c3c(N4CCC5(CC4)OCCO5)ncnc3c2c1
Second: Cc1cnc(N2C(=O)c3ccc([N+](=O)[O-])cc3C2=O)s1
The solubility kinetic of the first is 7-fold lower: 4 µg/mL (≈ 11.3 µM) for the first, 28 µg/mL (≈ 96.8 µM) for the second.

Going from O=c1c2ccccc2[nH]c(=S)n1CCCn1ccnc1 to CN(Cc1ccccc1C#N)S(=O)(=O)c1cccs1, the solubility kinetic rises from 19.4 µg/mL (≈ 67.7 µM) to 34.8 µg/mL (≈ 119 µM) (1.8-fold).

Going from Cc1ccc(NS(=O)(=O)c2ccc3[nH]c(=O)c(=O)[nH]c3c2)cc1Cl to Cc1cc(C)c(C)c(S(=O)(=O)Nc2cccc(S(=O)(=O)Nc3ccccc3C(=O)O)c2)c1C, the solubility kinetic rises from 11.5 µg/mL (≈ 31.4 µM) to 72.1 µg/mL (≈ 148 µM) (6.3-fold).

CC(CC(=O)O)CC(=O)Nc1nncs1 (stereo not given) and CCC(C)[C@H](NC(=O)NCc1cccnc1)C(=O)OC (stereo not given in full) cannot be ordered by solubility kinetic: greater than 34.4 µg/mL for the first, 41.5 µg/mL (≈ 149 µM) for the second.

CSc1ccc(C2NC(=O)CCC2[N+](=O)[O-])cc1 (stereo not given) and CN(CC(=O)Nc1ccc(F)cc1)CC(=O)NC1CCCCC1 cannot be ordered by solubility kinetic: greater than 39.9 µg/mL for the first, greater than 48.2 µg/mL for the second.

CN(C)c1ccc(CNS(=O)(=O)c2csc(C(N)=O)c2)cc1 and Cc1ccc2c(CC(=O)NNC(=O)c3ccncc3)coc2c1 cannot be ordered by solubility kinetic: greater than 50.9 µg/mL for the first, greater than 46.4 µg/mL for the second.

First: NC(=O)[C@@H]1CCCN1Cc1nc(-c2ccccc2)no1
Second: CC1Cc2ccccc2N1CC(=O)NC(=O)NC1CCCC1 (stereo not given)
The solubility kinetic of the first is 4.6-fold higher: 31.9 µg/mL (≈ 117 µM) for the first, 6.9 µg/mL (≈ 22.9 µM) for the second.

NS(=O)(=O)c1cc2c(cc1C(F)(F)F)NC(Cc1ccccc1)NS2(=O)=O (stereo not given) gave a solubility kinetic greater than 63.2 µg/mL.
